Test results from patent US6869974B1, “Pharmaceutical compounds” (Nicox S.A., priority 1999, dated 2005).
“Also recorded” adds a separate entry of the source.

Experiments:
[1] = system: Human endothelial cells of the umbilical vein; assay: Test 2 (CIP): apoptosis (DNA fragmentation) induced by cumene hydroperoxide in endothelial cells; format: cell-based; conditions: for activity at 100 µM: Homo sapiens, Endothelial cell, 1 h, read-out: Apoptosis % with respect to the controls treated only with CIP; for inhibition of apoptosis induced by CIP (in words, significance p<0.01): CIP 5 mM
Protocol: Test 2 (CIP): Protection parameter of endothelial cell against the oxidative stress induced by cumene hydroperoxide (CIP).
Human endothelial cells of the umbilical vein are prepared according to an usual standard procedure. Fresh umbilical veins are filled with a 0.1% by weight collagenase solution and incubated at 37° C. for 5 minutes.
The cells are collected from the perfusate by centrifugation and harvested in culture flasks T-75, pretreated with human fibronectin. The cells are then harvested in the same medium, further added with 10 ng/ml of bovine hypothalamic growth factor. When the cells of the primary cell culture (i.e. that directly obtained from ex-vivo) form a single layer of confluent cells (about 8,000,000 cells/flask), the culture is stopped and the layers washed and trypsinized. The cellular suspensions are transferred into the wells of a cell culture plate having 24 wells, half of which is then additioned with the same culture medium containing the drug at a 10^−4M concentration, and harvested in a thermostat at 37° C. at a constant moisture. Only the cells coming from said first sub-cultures are used for the experiments with cumene hydroperoxide (CIP).
Before starting the test, the cellular culture medium is removed and the cellular layers are carefully washed with a physiologic solution at a temperature of 37° C. The wells of the culture plate are then incubated for one hour with CIP at a 5 mM concentration in the culture medium. […] 5 replicates for each sample are carried out.
Human endothelial cells of the umbilical vein are prepared according to a standard method. Fresh umbilical veins are filled with a collagenase solution 0.1% by weight and incubated at 37° C. for 5 minutes.
The cells are collected from the perfusate by centrifugation at 800 rpm and harvested in culture flasks T-75, pretreated with human fibronectin. Cells are then harvested in the same medium, added with bovine hypothalamic growth factor (100 ng/ml). When the cells of the primary cell culture (the cells directly removed from ex-vivo umbilical vein) form a single layer of confluent cells (abdut 8,000,000 cells/flask), harvesting is stopped and the layers are washed and trypsinized. The cellular suspensions are transferred into wells of a culture plate having 24 wells, half of said wells being added with the same culture medium containing the drug at a 10^−4M concentration, and harvested in a thermostat at 37° C. at a constant moisture (90%), CO2=5%. When the drug is not soluble in the culture medium, it is formerly dissolved in a small amount of di-methylsulphoxide. The maximum amount of dimethylsulphoxide which can be added to the culture medium is 0.5%. Only the cells coming from these first subcultures are used for the tests with cumene hydroperoxide (CIP).
Before starting the test, the cellular culture medium is removed and the cellular layers are carefully washed with a standard physiologic solution buffered with phosphate 0.1 M pH 7.0, at the temperature of 37° C. The content of each well is then incubated for one hour with a CIP suspension in the culture medium at a 5 mM concentration. Evaluation of the cellular damage (apoptosis) is carried out by determining the percent variation of the DNA fragmentation in the cultures containing the drug+CIP with respect to the controls treated with CIP only. […] The fluorescence of each sample was determined on 5 replicates. Statistic evaluation has been made with t Student test (p<0.01).

[2] = system: rats not treated or treated with NEM; assay: in vivo; conditions: rats not treated with NEM; single dose; route given with each value (p.o., i.c., s.c.)
Protocol: (§1) The animals (rats) are distributed in the following groups (no. 10 animals for group):
(§2) • 1° group: treatment: only carrier (aqueous suspension 1% w/v of carboxyymethylcellulose, dose: 5 ml/Kg when the drug is administered by os, or a physiologic solution when parenterally administered, i.e. by subcutaneous, intraperitoneal, ir-ravenous or intermuscular route), • 2° group: treatment: carrier as above defined+NEM, B) Groups treated with the drug: • group I: treatment: carrier+drug, • gruppo II: treatment: carrier+drug+NEM.
(§3) The administration routes are those known for the drug, and can be the oral or subcutaneous, intraperitoneal, intravenous or intramuscular route.
(§4) The animals are sacrificed after 24 hours and then one proceeds to the evaluation of the damage to the gastrointestinal mucosa.
(§5) Test 1—experimental model in vivo with N-ethylmaleimide (NEM): study of the gastric tolerability of some drugs screened as precursors of the compounds of the invention.
(§6) The animals (rats, weight about 200 g) are distributed in the following groups (No. 10 animals for group):
(§7) • 1° group: treatment: only carrier (aqueous suspension 1% w/v of carboxymethylcellulose, dose: 5 ml/Kg when the drug is administered by os, physiologic solution when by parenteral route), • 20 group: treatment: carrier+NEM, B) Groups administered with each drug: • group I: treatment: carrier+drug, • group II: treatment: carrier+drug+NEM.
(§8) The drug is administered one hour later, in suspension in the carrier. Animals are sacrificed after 24 hours and evaluation of the damage to the gastrointestinal mucosa is made by counting the number of rats, inside each group, with lesions to the stomach at a visual inspection. The total number of said rats is then divided by the total number of rats of the group and multiplied by 100.

in vivo = conditions: rat, in vivo
Protocol: as §1, §2, §3, §4, §5, §6, §7, §8

[3] = Test 4: inhibition of radical production from DPPH; conditions: 100 μM (10^-4 M) in methanol, 30 minutes, absorbance 517 nm
Protocol: Test 4 is a […] test which affords to establish whether the precursor of B or B1 (precursor of the X2 or X2a of the formulas (I) and (II) respectively), inhibits the production of radicals from DPPH (2,2-diphenyl-1-picryl-hydrazyl) (M. S. Nenseter et Al., Atheroscler. Thromb. 15, 1338-1344, 1995). 100 μM solutions in methanol of the tested substances are prepared, and an aliquot of each of said solutions is added to a DPPH solution in methanol […]. After having stored the solutions at room temperature away from light for 30 minutes, their absorbances are read at the wave length of 517 nm, together with that of the corresponding DPPH solution at the same concentration. The absorbance decrease with respect to that of the solution of DPPH at the same concentration of the test solutions is determined. The effectiveness of the tested compound in inhibiting formation of radicals by DPPH is expressed by the following formula: (1−AS/AC)X100 wherein AS and AC are respectively the absorbance values of the solution containing the test compound together with DPPH and of the solution containing only DPPH.
The B or B1 precursor satisfies test 4 if their effectiveness in inhibiting radical production as above defined, is equal to or higher than 50% at the indicated concentration (10^−4 M).
Test 4: inhibition of the radical production from DPPH of some substances to be used as precursors of B or B1 (ref. Formulas I and II of the invention)
The method is based on a colorimetric test in which DPPH (2,2-diphenyl-1-picryl-hydrazyl) is used as the compound-forming radicals (M. S. Nenseter et Al., Atheroscler. Thromb. 15, 1338-1344, 1995).
Solutions in methanol of the tested substances at a final concentration 100 μM are initially prepared. 0.1 ml of each of these solutions are added to aliquots of 1 ml of a methanol solution 0.1 M of DPPH and then the final volume is brought to 1.5 ml. After having stored the solutions at room temperature away from light for 30 minutes, the absorbance at the wave length of 517 nm is read. It is determined the absorbance decrease with respect to the absorbance of a solution containing the same concentration of DPPH.
The efficacy of the test compound to inhibit the production of radicals, or antiradical activity, is expressed by the following formula: (1−AS/AC)X100 wherein AS and AC are, respectively, the absorbance values of the solution containing the test compound together+DPPH and of the solution containing only DPPH.
The compound meets test 4 if radical production inhibition, as above defined, is equal to or higher than 50%.

[4] = Table II, drug 10^-4 M, CIP 5 mM for one hour, DNA fragmentation

Compound	activity at 100 µM [1, 4] [%]	inhibition of apoptosis induced by CIP (in words, significance p<0.01) ([1]; drug 10^-4 M)	further results
NC(=O)c1cccnc1 [Nicotinamide, nicotinamide]	98	do not significantly inhibit apoptosis	–
COc1ccc2[nH]c([S+]([O-])Cc3ncc(C)c(OC)c3C)nc2c1 (stereo not shown) [Omeprazol, omeprazol]	90	do not significantly inhibit apoptosis	maximum tolerated dose (dose (mg/Kg)/admin. route) [2]: 30/s.c. mg/Kg
CC(C)(C)NCC(O)c1ccc(O)c(CO)c1 (stereo not shown) [Salbutamol, salbutamol]	90	do not significantly inhibit apoptosis	–
clopidogrel	–	do not significantly inhibit apoptosis	Apoptosis % with respect to the controls treated only with CIP [1, 4]: 110%
aciclovir	–	do not significantly inhibit apoptosis	Apoptosis % with respect to the controls treated only with CIP [1, 4]: 95%
Nc1c(Br)cc(Br)cc1CN[C@H]1CC[C@H](O)CC1 [Ambroxol, ambroxol]	–	inhibit apoptosis	–
CCCCC(C)(O)C/C=C/[C@H]1[C@H](O)CC(=O)[C@@H]1CCCCCCC(=O)OC (mixture of isomers) [Misoprostol, misoprostol]	–	–	MTD at 24 h (in vivo): 0.5 mg/kg
enalapril	–	do not significantly inhibit apoptosis	–
NCCCC(O)(P(=O)(O)O)P(=O)(O)O [Alendronate, sodic alendronate]	160	do not significantly inhibit apoptosis	–
Nc1ccc(O)c(C(=O)O)c1 [Mesalamine, mesalamine]	74	inhibit apoptosis; also recorded: inhibits the apoptosis induced by CIP	MTD at 24 h (in vivo): 750 mg/kg
O=C(O)c1cc(O)ccc1O [Gentisic acid, gentisic acid]	–	–	% inhibition radicals from DPPH ([3]; 100 µM): 80%
CC(=O)Nc1ccc(O)cc1 [Paracetamol, paracetamol]	120	do not significantly inhibit apoptosis; also recorded: not significantly different with respect to that of the controls	–
Nc1c2c(nc3ccccc13)CCCC2 [Tacrine, tacrine]	90	do not significantly inhibit apoptosis	maximum tolerated dose (dose (mg/Kg)/admin. route) [2]: 1/s.c. mg/Kg
Cn1c(=O)c2c(ncn2CC(O)CO)n(C)c1=O (stereo not shown) [Diphylline, diphylline]	95	do not significantly inhibit apoptosis	–
CCC(C)(C)C(=O)O[C@H]1C[C@@H](C)C=C2C=C[C@H](C)C(CCC3CC(O)CC(=O)O3)[C@H]21 (stereo partly shown) [Simvastatine, simvastatine]	72	–	–
CC(=O)N[C@H](CS)C(=O)O [N-acetylcisteine]	–	–	% inhibition radicals from DPPH ([3]; listed as N-acetylcysteine, 100 µM): 100%
N[C@@H](CS)C(=O)O [Cisteine, cisteine]	–	–	% inhibition radicals from DPPH ([3]; 100 µM): 100%
cetirizine	–	do not significantly inhibit apoptosis	Apoptosis % with respect to the controls treated only with CIP [1, 4]: 115%
COc1cc(/C=C/C(=O)O)ccc1O [Ferulic acid, ferulic acid]	–	–	% inhibition radicals from DPPH ([3]; 100 µM): 100%
CC(C)(S)[C@@H](N)C(=O)O [Penicillamine, penicillamine]	–	–	% inhibition radicals from DPPH [3]: 100%
COc1ccc2c(c1)c(CC(=O)O)c(C)n2C(=O)c1ccc(Cl)cc1 [Indomethacin, indomethacin]	95	not significantly different with respect to that of the controls	Apoptosis % with respect to the controls treated only with CIP ([1]; Table III, second apoptosis experiment (Example F6), CIP-induced DNA fragmentation): 95%; inhibition of apoptosis induced by CIP (in words, significance p<0.01) ([1]; drug 10^-4 M, listed as indomethacin): do not significantly inhibit apoptosis; maximum tolerated dose (dose (mg/Kg)/admin. route) [2]: 7.5 mg/kg
CC1(C)S[C@@H]2[C@H](NC(=O)[C@H](N)c3ccccc3)C(=O)N2[C@H]1C(=O)O [Ampicilline, ampicilline]	–	do not significantly inhibit apoptosis	–
